Laboratory results taken from patent US5043328A, “Formulations containing unsaturated fatty acids for the synthesis of prostaglandins and hydroxy-fatty acids in biological systems” (priority 1986, dated 1991).
Where two headings read alike, the source gives them in different places. No end group written: not given here.

Target: T1, enzyme (from seminal vesicles of sheep) (Ovis aries, UniProt P05979)
T1 sequence (P05979 25-600): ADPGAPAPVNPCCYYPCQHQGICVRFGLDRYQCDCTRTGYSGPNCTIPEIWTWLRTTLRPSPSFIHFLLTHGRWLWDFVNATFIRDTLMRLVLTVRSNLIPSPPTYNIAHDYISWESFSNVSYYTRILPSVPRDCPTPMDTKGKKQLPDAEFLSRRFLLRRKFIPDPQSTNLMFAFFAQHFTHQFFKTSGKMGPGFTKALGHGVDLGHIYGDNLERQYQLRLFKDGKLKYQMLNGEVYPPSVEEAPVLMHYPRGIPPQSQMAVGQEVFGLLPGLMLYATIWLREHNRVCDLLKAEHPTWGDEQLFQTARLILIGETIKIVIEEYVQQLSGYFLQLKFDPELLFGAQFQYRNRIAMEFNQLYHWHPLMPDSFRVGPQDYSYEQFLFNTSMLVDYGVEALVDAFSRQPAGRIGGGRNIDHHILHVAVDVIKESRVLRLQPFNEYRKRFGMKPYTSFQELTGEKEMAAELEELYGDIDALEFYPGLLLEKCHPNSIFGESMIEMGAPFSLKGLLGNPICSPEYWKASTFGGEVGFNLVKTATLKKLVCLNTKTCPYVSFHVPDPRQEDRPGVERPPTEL
Details: for stimulation of prostaglandin synthesis with much smaller quantities of undesired byproducts: mixtures with polyunsaturated fatty acids such as arachidonic acid
Protocol: Method 2: Prostaglandin Synthesis
0.3 ml of 0.03M potassium phosphate buffer of pH=8.0 contains 0.5 mg of enzyme (from seminal vesicles of sheep) (Biochemistry 10 (1971) 2372) or homogenate of the inner kidney medulla (Life Sciences 26 (1980) 765), 2.75 μg of ^14 C-arachidonic acid (0.5 μCi) and 0.5 mg of stimulator, and, if appropriate, 0.5 mg of stabilizer substance (see Table 1). After 10 minutes' incubation at 37° C., the reaction is stopped with 0.05 ml of 1.2M citric acid and the mixture is extracted with twice 0.5 ml of ethyl acetate, the combined extracts are freed of solvent, and the residue is dissolved in 0.2 ml of methanol, diluted 1:1 with water and separated by HPLC (nucleosil C-18 column, 125×4.6 mm, from Bischoff, Leonberg, Germany, solvent 300 ml of acetonitrile, 700 ml of water and 1 ml of glacial acetic acid and after 30 minutes pure methanol). The separation of the radioactive fractions is followed by a monitor (LB 504 from Berthold, Wildbad, Germany). The products formed, such as 6-keto-prostaglandin F2alpha, prostaglandin E2, prostaglandin F2alpha and prostaglandin D2, are separated under these conditions.
The prostaglandins PGE2, PGF2 alpha and PGD2 as products from arachidonic acid where quantified by means of method 2, and the sum was related as "total prostaglandin" to 100%. The quantity of "total prostaglandin" formed without the addition of a stimulator was set at f=1; the quantity formed after stimulation was related thereto. f=2 or f=3 therefore means twice or three times the stimulation under the conditions of method 2. The stability of the sample was investigated by means of method 1 (right-hand column). […] Values greater than 25-28% therefore represent a stabilization, and values smaller than 25-28% represent a destabilization. Example No. 1 was carried out without a stimulator. […] The substances test with respect to stabilization (see Method 1 for quantities) were: A) aqueous solution without stabilizer addition, B) ethanolic solution without further addition, C) pyridine solution, D) with rutin, predissolved in dimethyl sulfoxide, dimethyl sulfoxide then stripped off, E) like B) with lecithin, ethanol stripped off, F) like A) with cytochrome c from horse heart (from Boehringer, Mannheim, Germany), G) like A) with methemoglobin (human) (from Sigman, Munich, Germany), H) like A) with bovine serum albumin (from Calbiochem, Frankfurt, Germany), J) like A) or B), but solvent stripped off, K) like J) with cytochrome c, L) like J) with hemoglobin (human) (from Behringwerke, Marburg, Germany), and M) like J) with human serum albumin (from Behringwerke, Marburg, Germany).

[1] = seminal vesicle enzyme, 10 min, pH 8
[2] = Table 1, share of total prostaglandin (=100%)
[3] = Table 2, share of total prostaglandin
[4] = Table 1, 0.5 mg stimulator, 10 min 37° C., without stimulator f=1

Compound: O=C(O)CCCC[C@@H](S)CCS (racemic) [Example 42, Dihydrolipoic acid, reference compound]
- stimulation of prostaglandin synthesis with much smaller quantities of undesired byproducts (result in words): not possible to achieve these advantageous effects
- relative total prostaglandin f [1]: 1.0

Compound: Cc1cccc(O)c1 [Example 2, m-cresol, reference compound]
- PGD2 % [2]: 2%
- PGE2 % [2]: 98%
- PGF2alpha % [2]: 0%

Compound: Oc1ccccc1 [Example 3, phenol, reference compound]
- PGD2 % [2]: 18%
- PGE2 % [2]: 77%
- PGF2alpha % [2]: 5%

Compound: N[C@@H](Cc1ccccc1)C(=O)O [Example 4, L-phenylalanine, reference compound]
- PGD2 % [2]: 18%
- PGE2 % [2]: 80%
- PGF2alpha % [2]: 2%

Compound: NCCc1ccc(O)cc1 [Example 7]
- PGD2 % [2]: 17%
- PGE2 % [2]: 80%
- PGF2alpha % [2]: 3%
- relative total prostaglandin f [1]: 4,0

Compound: O=C(O)CCc1ccc(O)cc1 [Example 8]
- PGD2 % [2]: 16%
- PGE2 % [2]: 83%
- PGF2alpha % [2]: 1%

Compound: NC(Cc1ccc(O)c(O)c1)C(=O)O (stereo not shown) [Example 9]
- PGD2 % [2]: 16%
- PGE2 % [2]: 70%
- PGF2alpha % [2]: 14%
- relative total prostaglandin f [1]: 9.4

Compound: NCC(O)c1ccc(O)c(O)c1 (stereo not shown) [Example 12]
- PGD2 % [2]: 17%
- PGE2 % [2]: 66%
- PGF2alpha % [2]: 17%
- relative total prostaglandin f [1]: 8.3

Compound: CNCC(O)c1ccc(O)c(O)c1 (stereo not shown) [Example 13]
- PGD2 % [2]: 18%
- PGE2 % [2]: 70%
- PGF2alpha % [2]: 12%

Compound: Oc1ccc(O)cc1 [Example 14]
- PGD2 % [2]: 19%
- PGE2 % [2]: 69%
- PGF2alpha % [2]: 12%

Compound: COc1cc(C(=O)O)ccc1O [Example 15]
- PGD2 % [2]: 17%
- PGE2 % [2]: 71%
- PGF2alpha % [2]: 12%

Compound: O=C(O)c1ccc(O)cc1 [Example 16]
- PGD2 % [2]: 18%
- PGE2 % [2]: 69%
- PGF2alpha % [2]: 13%

Compound: NC(Cc1c[nH]c2ccccc12)C(=O)O (stereo not shown) [Example 18]
- PGD2 % [2]: 21%
- PGE2 % [2]: 76%
- PGF2alpha % [2]: 3%
- relative total prostaglandin f [1]: 9.8

Compound: NC(Cc1c[nH]c2ccc(O)cc12)C(=O)O (stereo not shown) [Example 19]
- PGD2 % [2]: 18%
- PGE2 % [2]: 79%
- PGF2alpha % [2]: 3%
- relative total prostaglandin f [1]: 10.1

Compound: O=C(O)CCc1c[nH]c2ccccc12 [Example 20]
- PGD2 % [2]: 16%
- PGE2 % [2]: 82%
- PGF2alpha % [2]: 2%

Compound: N[C@H](CS)C(=O)O [Example 34, D-cysteine]
- PGD2 % [2]: 23%
- PGE2 % [2]: 63%
- PGF2alpha % [2]: 14%

Compound: CC(=O)NC(CS)C(=O)O (stereo not shown) [Example 37, NAcetylcysteine]
- PGD2 % [2]: 25%
- PGE2 % [2]: 61%
- PGF2alpha % [2]: 14%

Compound: O[C@H](CS)[C@H](O)CS [Example 39, Dithiothreitol, reference compound]
- stimulation of prostaglandin synthesis with much smaller quantities of undesired byproducts (result in words): not possible to achieve these advantageous effects
- relative total prostaglandin f [1]: 0.8

Compound: O[C@H](CS)[C@@H](O)CS [Example 40, Dithioerythritol, reference compound]
- stimulation of prostaglandin synthesis with much smaller quantities of undesired byproducts (result in words): not possible to achieve these advantageous effects
- relative total prostaglandin f [1]: 0.85

Compound: N[C@@H](CSSC[C@H](N)C(=O)O)C(=O)O [Example 41, Cystine, reference compound]
- PGD2 % [2]: 15%
- PGE2 % [2]: 85%
- PGF2alpha % [2]: 0%
- stimulation of prostaglandin synthesis with much smaller quantities of undesired byproducts (result in words): not possible to achieve these advantageous effects
- relative total prostaglandin f [1]: 1.0

Compound: NCCS [Example 43, Cysteamine, reference compound]
- stimulation of prostaglandin synthesis with much smaller quantities of undesired byproducts (result in words): not possible to achieve these advantageous effects
- relative total prostaglandin f [1]: 0.9

Compound: CC(C)(COP(=O)(O)OP(=O)(O)OC[C@H]1O[C@@H](n2cnc3c(N)ncnc32)[C@H](O)[C@@H]1OP(=O)(O)O)[C@@H](O)C(=O)NCCC(=O)NCCS [Example 45, Coenzyme A, reference compound]
- stimulation of prostaglandin synthesis with much smaller quantities of undesired byproducts (result in words): not possible to achieve these advantageous effects
- relative total prostaglandin f [1]: 1.0

Compound: CC(C)(CO)[C@@H](O)C(=O)NCCC(=O)NCCS [Example 46, Pantetheine, reference compound]
- stimulation of prostaglandin synthesis with much smaller quantities of undesired byproducts (result in words): not possible to achieve these advantageous effects
- relative total prostaglandin f [1]: 0.95

Compound: CC1=C(C)C(=O)C(CC[C@](C)(O)CCC[C@H](C)CCC[C@H](C)CCCC(C)C)=C(C)C1=O [Example 51, D-alpha-Tocopheryl-quinone]
- PGD2 % [3]: 15%
- PGE2 % [3]: 80%
- PGF2alpha % [3]: 5%

Compound: C[C@@H]1O[C@@H](OC[C@H]2O[C@@H](Oc3c(-c4ccc(O)c(O)c4)oc4cc(O)cc(O)c4c3=O)[C@H](O)[C@@H](O)[C@@H]2O)[C@H](O)[C@H](O)[C@H]1O [Example 52, Rutin]
- PGD2 % [3]: 18%
- PGE2 % [3]: 76%
- PGF2alpha % [3]: 6%
- relative total prostaglandin f [1]: 6

Compound: O=c1c(O)c(-c2ccc(O)c(O)c2)oc2cc(O)cc(O)c12 [Example 57, Quercetin]
- PGD2 % [3]: 10%
- PGE2 % [3]: 72%
- PGF2alpha % [3]: 18%
- relative total prostaglandin f [1]: 0.3

Compound: Oc1cc(O)c2c(c1)OC(c1ccc(O)c(O)c1)C(O)C2 (stereo not shown) [Example 58, Catechin]
- PGD2 % [3]: 12%
- PGE2 % [3]: 70%
- PGF2alpha % [3]: 18%

Compound: O=C(CCc1ccc(O)cc1)c1c(O)cc(O)cc1O [Example 60, Phloretin]
- PGD2 % [3]: 13%
- PGE2 % [3]: 76%
- PGF2alpha % [3]: 11%

Compound: O=c1c(O)c(-c2ccc(O)cc2O)oc2cc(O)cc(O)c12 [Example 61, Morin]
- PGD2 % [3]: 19%
- PGE2 % [3]: 54%
- PGF2alpha % [3]: 27%

Compound: N[C@@H](CS)C(=O)O [cysteine]
- stimulation of prostaglandin synthesis with much smaller quantities of undesired byproducts (result in words): stimulated

Compound: N[C@@H](CCS)C(=O)O [homocysteine]
- stimulation of prostaglandin synthesis with much smaller quantities of undesired byproducts (result in words): stimulated

Compound: GlyTrpGly [Example 25]
- relative total prostaglandin f [4]: 13.0
- PGD2 % [2]: 20%
- PGE2 % [2]: 79%
- PGF2alpha % [2]: 1%

Compound: LeuTrp [Example 27]
- relative total prostaglandin f [4]: 17.0
- PGD2 % [2]: 22%
- PGE2 % [2]: 77%
- PGF2alpha % [2]: 1%

Compound: LeuTrpMet [Example 29]
- relative total prostaglandin f [4]: 10.8
- PGD2 % [2]: 22%
- PGE2 % [2]: 69%
- PGF2alpha % [2]: 9%

Compound: TrpAla [Example 26]
- relative total prostaglandin f [4]: 12.6
- PGD2 % [2]: 22%
- PGE2 % [2]: 77%
- PGF2alpha % [2]: 1%

Compound: TrpTrp [Example 24]
- relative total prostaglandin f [4]: 11.7
- PGD2 % [2]: 23%
- PGE2 % [2]: 75%
- PGF2alpha % [2]: 2%

Compound: TyrTrp [Example 31]
- relative total prostaglandin f [4]: 6.3
- PGD2 % [2]: 14%
- PGE2 % [2]: 73%
- PGF2alpha % [2]: 3%

Compound: TyrTyrTyrOCH3 [Example 30]
- relative total prostaglandin f [4]: 5.3
- PGD2 % [2]: 11%
- PGE2 % [2]: 75%
- PGF2alpha % [2]: 4%

Compound: YCEHFRWG [Example 38]
- Stimulation (Table 1, result in words): positive
